Results taken from ChEMBL document CHEMBL5291721, “A preclinical secondary pharmacology resource illuminates target-adverse drug reaction associations of marketed drugs” (Nat Commun, 2023).

Key:
[1] = biological target: Acetylcholinesterase (Homo sapiens, UniProt P22303); type: functional
[2] = biological target: T1, Alpha-2A adrenergic receptor (Homo sapiens, UniProt P08913)
T1 sequence (P08913 whole entry): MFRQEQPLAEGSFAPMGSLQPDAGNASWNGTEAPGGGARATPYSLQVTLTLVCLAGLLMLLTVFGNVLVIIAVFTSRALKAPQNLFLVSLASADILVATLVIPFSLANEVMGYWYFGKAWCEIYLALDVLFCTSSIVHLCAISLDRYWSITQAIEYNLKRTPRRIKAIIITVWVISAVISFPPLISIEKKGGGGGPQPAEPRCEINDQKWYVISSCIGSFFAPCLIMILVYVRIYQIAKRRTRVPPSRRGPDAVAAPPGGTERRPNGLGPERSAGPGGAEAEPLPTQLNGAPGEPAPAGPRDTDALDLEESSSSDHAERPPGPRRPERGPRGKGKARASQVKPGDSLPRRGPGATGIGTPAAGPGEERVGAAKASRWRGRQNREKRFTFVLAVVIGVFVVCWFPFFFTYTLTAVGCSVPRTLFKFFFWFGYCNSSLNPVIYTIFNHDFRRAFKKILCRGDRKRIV

[3] = biological target: Prothrombin (Homo sapiens, UniProt P00734); type: functional
[4] = biological target: Sodium-dependent dopamine transporter (Homo sapiens, UniProt Q01959)
[5] = biological target: T2, Muscarinic acetylcholine receptor M2 (Homo sapiens, UniProt P08172)
T2 sequence (P08172 whole entry): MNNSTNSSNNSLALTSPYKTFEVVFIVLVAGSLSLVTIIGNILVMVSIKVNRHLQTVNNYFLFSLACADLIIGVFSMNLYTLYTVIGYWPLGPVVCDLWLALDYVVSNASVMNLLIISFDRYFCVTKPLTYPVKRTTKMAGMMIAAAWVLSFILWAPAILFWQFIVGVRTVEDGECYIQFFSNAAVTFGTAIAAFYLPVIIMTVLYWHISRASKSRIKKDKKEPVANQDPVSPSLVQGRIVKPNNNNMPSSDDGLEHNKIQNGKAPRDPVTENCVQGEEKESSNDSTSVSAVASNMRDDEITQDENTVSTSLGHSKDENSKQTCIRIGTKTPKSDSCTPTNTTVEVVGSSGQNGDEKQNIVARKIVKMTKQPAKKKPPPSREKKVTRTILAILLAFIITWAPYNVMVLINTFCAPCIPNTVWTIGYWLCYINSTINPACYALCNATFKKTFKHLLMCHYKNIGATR

[6] = biological target: Voltage-gated inwardly rectifying potassium channel KCNH2 (Homo sapiens, UniProt Q12809); type: functional
[7] = biological target: cGMP-inhibited 3',5'-cyclic phosphodiesterase 3A (Homo sapiens, UniProt Q14432); type: functional
[8] = biological target: T3, Thromboxane A2 receptor (Homo sapiens, UniProt P21731); type: functional, cell-based
T3 sequence (P21731 whole entry): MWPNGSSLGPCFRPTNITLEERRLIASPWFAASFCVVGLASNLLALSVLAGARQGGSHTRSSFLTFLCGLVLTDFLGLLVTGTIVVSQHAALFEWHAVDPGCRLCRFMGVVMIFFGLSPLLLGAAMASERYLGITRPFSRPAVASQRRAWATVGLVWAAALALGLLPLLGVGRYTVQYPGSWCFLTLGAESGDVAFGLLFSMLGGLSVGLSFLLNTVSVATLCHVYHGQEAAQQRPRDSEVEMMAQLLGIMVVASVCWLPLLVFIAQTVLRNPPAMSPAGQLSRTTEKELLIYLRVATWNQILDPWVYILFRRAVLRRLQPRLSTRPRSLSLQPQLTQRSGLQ

[9] = biological target: T3, Thromboxane A2 receptor; type: functional, cell-based; remark: listed apart in the source
[10] = biological target: Histamine H3 receptor (Homo sapiens, UniProt Q9Y5N1)
[11] = biological target: 5-hydroxytryptamine receptor 2B (Homo sapiens, UniProt P41595); type: functional, cell-based
[12] = biological target: T4, Amine oxidase [flavin-containing] A (Homo sapiens, UniProt P21397); type: functional
T4 sequence (P21397 whole entry): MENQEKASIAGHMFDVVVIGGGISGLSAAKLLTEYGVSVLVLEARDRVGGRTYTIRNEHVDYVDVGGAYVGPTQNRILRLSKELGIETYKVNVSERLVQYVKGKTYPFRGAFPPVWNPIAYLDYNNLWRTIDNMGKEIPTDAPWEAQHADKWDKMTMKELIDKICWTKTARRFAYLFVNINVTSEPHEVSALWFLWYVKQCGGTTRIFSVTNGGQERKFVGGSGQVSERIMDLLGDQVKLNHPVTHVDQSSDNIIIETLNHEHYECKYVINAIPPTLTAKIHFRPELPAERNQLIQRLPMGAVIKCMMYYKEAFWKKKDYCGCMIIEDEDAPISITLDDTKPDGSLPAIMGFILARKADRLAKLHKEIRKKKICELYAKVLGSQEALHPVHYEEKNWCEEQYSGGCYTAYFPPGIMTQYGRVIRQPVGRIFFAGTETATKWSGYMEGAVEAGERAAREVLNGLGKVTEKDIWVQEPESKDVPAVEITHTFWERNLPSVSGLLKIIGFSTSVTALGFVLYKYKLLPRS

[13] = biological target: T5, 5-hydroxytryptamine receptor 1A (Homo sapiens, UniProt P08908)
T5 sequence (P08908 whole entry): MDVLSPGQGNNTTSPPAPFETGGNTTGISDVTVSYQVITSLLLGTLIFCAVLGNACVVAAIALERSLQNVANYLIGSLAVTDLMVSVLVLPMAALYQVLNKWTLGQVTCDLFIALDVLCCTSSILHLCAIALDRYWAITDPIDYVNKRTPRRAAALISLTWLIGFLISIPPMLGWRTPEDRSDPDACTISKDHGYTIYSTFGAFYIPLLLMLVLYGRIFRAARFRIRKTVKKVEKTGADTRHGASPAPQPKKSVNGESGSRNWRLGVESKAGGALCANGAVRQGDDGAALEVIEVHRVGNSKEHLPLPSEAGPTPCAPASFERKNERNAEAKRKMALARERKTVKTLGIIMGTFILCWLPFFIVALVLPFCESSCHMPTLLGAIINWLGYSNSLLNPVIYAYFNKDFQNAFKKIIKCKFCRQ

[14] = biological target: 3',5'-cyclic-AMP phosphodiesterase 4A (Homo sapiens, UniProt P27815); type: functional

Measured: AC50
Further: assay procedure not described here.

3',5'-cyclic-AMP phosphodiesterase 4A, sequence (P27815 whole entry): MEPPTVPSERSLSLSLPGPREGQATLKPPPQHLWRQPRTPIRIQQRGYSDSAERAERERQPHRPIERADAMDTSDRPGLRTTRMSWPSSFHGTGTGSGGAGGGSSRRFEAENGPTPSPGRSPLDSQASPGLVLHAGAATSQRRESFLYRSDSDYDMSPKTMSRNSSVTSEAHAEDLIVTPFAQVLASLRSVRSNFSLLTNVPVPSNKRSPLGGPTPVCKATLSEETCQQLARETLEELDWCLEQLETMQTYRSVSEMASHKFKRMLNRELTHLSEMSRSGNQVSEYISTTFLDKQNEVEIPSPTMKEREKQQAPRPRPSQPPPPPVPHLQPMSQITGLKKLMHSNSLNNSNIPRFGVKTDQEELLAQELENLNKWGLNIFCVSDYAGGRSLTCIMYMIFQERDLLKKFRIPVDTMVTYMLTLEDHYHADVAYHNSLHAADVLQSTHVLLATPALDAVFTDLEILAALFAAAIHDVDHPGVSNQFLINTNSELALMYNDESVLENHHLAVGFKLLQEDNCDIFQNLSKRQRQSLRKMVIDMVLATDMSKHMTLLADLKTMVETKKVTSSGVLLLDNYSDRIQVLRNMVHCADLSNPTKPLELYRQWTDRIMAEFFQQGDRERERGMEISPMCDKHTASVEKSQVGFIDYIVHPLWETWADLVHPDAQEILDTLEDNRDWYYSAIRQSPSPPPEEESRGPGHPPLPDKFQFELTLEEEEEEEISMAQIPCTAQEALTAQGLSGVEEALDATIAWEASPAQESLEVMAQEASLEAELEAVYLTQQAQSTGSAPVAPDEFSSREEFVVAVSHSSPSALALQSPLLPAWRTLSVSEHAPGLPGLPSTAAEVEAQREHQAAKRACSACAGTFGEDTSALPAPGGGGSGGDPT
5-hydroxytryptamine receptor 2B, sequence (P41595 whole entry): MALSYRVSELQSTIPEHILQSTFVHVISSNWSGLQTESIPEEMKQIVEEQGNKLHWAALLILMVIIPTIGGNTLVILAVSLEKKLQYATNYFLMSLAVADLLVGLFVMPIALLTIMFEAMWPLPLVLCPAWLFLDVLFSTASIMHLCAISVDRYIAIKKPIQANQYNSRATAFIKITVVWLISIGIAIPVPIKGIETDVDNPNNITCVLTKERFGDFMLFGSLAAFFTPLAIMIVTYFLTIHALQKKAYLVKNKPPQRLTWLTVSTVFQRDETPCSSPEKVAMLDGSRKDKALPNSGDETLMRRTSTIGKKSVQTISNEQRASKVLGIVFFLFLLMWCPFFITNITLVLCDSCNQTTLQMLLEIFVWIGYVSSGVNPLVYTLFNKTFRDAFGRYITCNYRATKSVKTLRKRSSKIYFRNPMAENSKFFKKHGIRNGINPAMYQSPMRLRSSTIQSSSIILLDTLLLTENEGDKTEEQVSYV
Acetylcholinesterase, sequence (P22303 whole entry): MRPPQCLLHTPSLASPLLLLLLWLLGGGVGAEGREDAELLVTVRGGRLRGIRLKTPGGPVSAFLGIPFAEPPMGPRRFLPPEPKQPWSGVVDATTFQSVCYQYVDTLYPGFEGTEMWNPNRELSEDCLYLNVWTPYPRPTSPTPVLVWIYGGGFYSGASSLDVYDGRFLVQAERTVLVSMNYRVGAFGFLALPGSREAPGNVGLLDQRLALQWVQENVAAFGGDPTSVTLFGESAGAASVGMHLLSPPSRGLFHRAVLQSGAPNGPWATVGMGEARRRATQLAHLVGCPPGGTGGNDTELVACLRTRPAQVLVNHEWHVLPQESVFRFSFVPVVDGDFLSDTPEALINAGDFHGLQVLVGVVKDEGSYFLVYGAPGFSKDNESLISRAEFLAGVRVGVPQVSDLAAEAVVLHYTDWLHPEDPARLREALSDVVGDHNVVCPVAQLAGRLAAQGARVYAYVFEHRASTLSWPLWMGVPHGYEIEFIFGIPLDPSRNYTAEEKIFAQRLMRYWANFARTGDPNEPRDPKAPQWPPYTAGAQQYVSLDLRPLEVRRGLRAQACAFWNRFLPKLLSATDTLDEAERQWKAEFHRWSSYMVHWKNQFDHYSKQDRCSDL
cGMP-inhibited 3',5'-cyclic phosphodiesterase 3A, sequence (Q14432 whole entry): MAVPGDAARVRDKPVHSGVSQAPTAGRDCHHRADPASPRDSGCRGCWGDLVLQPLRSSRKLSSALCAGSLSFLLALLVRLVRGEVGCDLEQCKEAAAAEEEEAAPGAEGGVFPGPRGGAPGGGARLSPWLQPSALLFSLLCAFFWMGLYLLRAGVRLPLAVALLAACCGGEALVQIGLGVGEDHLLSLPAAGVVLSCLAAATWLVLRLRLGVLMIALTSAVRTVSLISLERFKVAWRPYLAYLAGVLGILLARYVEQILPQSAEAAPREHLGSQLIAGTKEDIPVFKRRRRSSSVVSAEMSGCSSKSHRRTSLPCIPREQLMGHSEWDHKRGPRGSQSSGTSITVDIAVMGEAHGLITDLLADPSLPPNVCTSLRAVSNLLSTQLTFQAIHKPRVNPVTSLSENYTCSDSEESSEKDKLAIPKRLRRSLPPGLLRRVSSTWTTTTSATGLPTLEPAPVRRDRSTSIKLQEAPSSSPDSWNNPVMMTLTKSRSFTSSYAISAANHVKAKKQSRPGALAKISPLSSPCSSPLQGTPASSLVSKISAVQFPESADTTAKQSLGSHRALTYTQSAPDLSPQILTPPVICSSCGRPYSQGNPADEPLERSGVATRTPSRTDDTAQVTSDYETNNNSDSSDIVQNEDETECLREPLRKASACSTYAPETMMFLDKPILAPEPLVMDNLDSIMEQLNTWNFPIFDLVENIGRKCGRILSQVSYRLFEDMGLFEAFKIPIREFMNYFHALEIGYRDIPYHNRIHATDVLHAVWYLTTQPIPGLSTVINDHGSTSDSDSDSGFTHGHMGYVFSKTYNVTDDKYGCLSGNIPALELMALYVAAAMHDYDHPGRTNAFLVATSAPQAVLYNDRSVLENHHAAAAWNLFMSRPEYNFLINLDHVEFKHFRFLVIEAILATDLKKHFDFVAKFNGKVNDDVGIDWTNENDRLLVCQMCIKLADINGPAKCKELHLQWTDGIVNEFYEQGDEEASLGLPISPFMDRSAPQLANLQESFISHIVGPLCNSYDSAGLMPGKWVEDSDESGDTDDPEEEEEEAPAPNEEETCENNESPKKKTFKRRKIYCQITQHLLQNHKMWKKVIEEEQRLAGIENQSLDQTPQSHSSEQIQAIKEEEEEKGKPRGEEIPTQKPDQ
Sodium-dependent dopamine transporter, sequence (Q01959 whole entry): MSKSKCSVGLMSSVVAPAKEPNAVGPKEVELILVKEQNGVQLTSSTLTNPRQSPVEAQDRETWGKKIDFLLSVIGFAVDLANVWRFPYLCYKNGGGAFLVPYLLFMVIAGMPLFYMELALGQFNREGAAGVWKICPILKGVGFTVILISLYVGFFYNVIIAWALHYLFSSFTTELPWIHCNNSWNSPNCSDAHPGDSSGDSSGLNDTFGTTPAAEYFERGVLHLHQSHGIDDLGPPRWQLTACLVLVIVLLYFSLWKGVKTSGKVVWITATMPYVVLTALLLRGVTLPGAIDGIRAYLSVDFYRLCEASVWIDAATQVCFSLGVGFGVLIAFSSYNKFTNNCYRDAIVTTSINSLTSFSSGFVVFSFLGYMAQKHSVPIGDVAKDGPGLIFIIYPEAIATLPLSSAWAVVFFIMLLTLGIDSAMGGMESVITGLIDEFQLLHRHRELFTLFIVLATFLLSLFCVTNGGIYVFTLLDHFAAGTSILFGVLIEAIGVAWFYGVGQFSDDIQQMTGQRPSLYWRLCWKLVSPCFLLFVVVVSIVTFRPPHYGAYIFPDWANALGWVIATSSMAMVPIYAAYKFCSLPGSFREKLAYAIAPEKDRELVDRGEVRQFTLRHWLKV
Histamine H3 receptor, sequence (Q9Y5N1 whole entry): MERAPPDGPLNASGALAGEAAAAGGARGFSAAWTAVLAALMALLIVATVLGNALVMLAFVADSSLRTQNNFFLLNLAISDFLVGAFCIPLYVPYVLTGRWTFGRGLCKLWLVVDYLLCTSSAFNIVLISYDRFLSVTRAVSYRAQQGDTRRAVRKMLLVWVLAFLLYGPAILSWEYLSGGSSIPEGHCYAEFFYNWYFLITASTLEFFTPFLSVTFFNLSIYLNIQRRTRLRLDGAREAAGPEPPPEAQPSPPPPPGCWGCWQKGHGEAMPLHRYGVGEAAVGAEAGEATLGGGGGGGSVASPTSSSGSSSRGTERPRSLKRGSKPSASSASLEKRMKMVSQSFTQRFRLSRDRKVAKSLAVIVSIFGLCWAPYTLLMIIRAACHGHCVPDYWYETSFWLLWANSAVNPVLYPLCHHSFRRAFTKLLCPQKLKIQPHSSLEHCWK

Cc1ccc(S(=O)(=O)NC(=O)NC2CCCCC2)cc1 [GLYCYCLAMIDE]
> 30 µM: all assays above

CN1CCCN(C(c2ccccc2)c2ccc(Cl)cc2)CC1 (configuration not stated) [HOMOCHLORCYCLIZINE]
0.81 µM: [6]
13.7 µM: [13]
11.8 µM: [9]
> 3 µM: [8]
0.149 µM: [5]
1.35 µM: [2]
0.229 µM: [4]
> 30 µM: all other assays above

CC(=O)OCC(=O)[C@@]1(O)CC[C@H]2[C@@H]3CCC4=CC(=O)CC[C@]4(C)[C@H]3[C@@H](O)C[C@@]21C [HYDROCORTISONE ACETATE]
> 30 µM: all assays above

CC(COc1ccccc1)NC(C)C(O)c1ccc(O)cc1 (configuration not stated) [ISOXSUPRINE]
> 10 µM: [12]
0.446 µM: [2]
0.625 µM: [4]
0.203 µM: [13]
15 µM: [6]
> 30 µM: all other assays above

Cc1oc(=O)oc1COC(=O)[C@@H]1N2C(=O)[C@@H](NC(=O)[C@H](N)c3ccccc3)[C@H]2SC1(C)C [LENAMPICILLIN]
24.9 µM: [8]
> 30 µM: all other assays above

COc1ccc(OC)c(C(O)C(C)N)c1 (configuration not stated) [METHOXAMINE]
25.9 µM: [2]
> 30 µM: all other assays above

CC1(CCN2CCCCC2)C(=O)CCc2ccccc21 (configuration not stated) [NEPINALONE]
18.3 µM: [2]
7.14 µM: [5]
> 30 µM: all other assays above

COC(=O)C[C@](O)(CCCC(C)(C)O)C(=O)O[C@@H]1C(OC)=C[C@]23CCCN2CCc2cc4c(cc2[C@H]13)OCO4 [OMACETAXINE MEPESUCCINATE]
> 30 µM: all assays above

COc1cccc(C(=O)CCN[C@@H](C)[C@H](O)c2ccccc2)c1 [OXYFEDRINE]
10 µM: [6]
0.0096 µM: [13]
5.96 µM: [2]
2.97 µM: [4]
> 30 µM: all other assays above

CC[N+](C)(CC)CCOC(=O)C(O)(c1ccccc1)C1CCCCC1 (configuration not stated) [OXYPHENONIUM]
14 µM: [6]
21.9 µM: [4]
0.003 µM: [5]
> 30 µM: all other assays above

C[C@@H]1C[C@H]2[C@@H]3C[C@H](F)C4=CC(=O)C=C[C@]4(C)[C@H]3[C@@H](O)C[C@]2(C)[C@@]1(O)C(=O)CO [PARAMETHASONE]
> 30 µM: all assays above

N[C@@H](Cc1ccccc1)C(=O)O [PHENYLALANINE]
> 30 µM: all assays above

CCCn1cnc2c1c(=O)n(CCCCC(C)=O)c(=O)n2C [PROPENTOFYLLINE]
8.96 µM: [14]
> 30 µM: all other assays above
